Assay results: patent US9839644B2, “Formulations and methods for treatment of metabolic syndrome” (ARKAY Therapeutics, LLC, priority 2014, dated 2017)
“Also recorded” adds a separate entry of the source.

Columns and labels:
[1] = tested on: C57BL/6J diet-induced obese (DIO) mice; conditions: cited from earlier work
[2] = tested on: prediabetes patients; conditions: cited from earlier work
[3] = tested on: subjects with impaired glucose metabolism; conditions: 26 weeks; cited from earlier work
[4] = tested on: C57BL/6J diet-induced obese (DIO) mice; conditions: cited from earlier work; remark: listed apart in the source
[5] = tested on: C57BL/6J DIO mice; conditions: Metformin alone (150 mg/Kg/day), 29-day study
Source text: Age and weight-matched C57BL/6J lean and DIO male mice were obtained from Jackson Labs (Bar Harbor, Me.). C57BL/6J DIO mice were fed high-fat diet (HFD) for 16 weeks to induce hepatic insulin resistance and pancreatic beta cell dysfunction. […] Lean control mice were maintained on D12450B (10% Kcal fat) Chow diet and DIO animals were maintained D12492 (60% KCal fat) research diets. Tap water was available ad libitum during the study. Animals were acclimated for a week. […] Test articles or the drugs were reconstituted in DMSO and 0.5% Methyl cellulose was used as the vehicle.
In a 29-day study, sub-maximal dose of Metformin (150 mg/Kg/day) and sub-maximal doses of Celecoxib (10 mg/Kg/day or 20 mg/Kg/day) were administered together or the vehicle was administered as an oral gavage in the morning and a sub-hypertensive dose of Valsartan (2 mg/Kg/day) or the vehicle was administered 6 hours later. Non-fasting BG measurements will be taken on Days 1, 15, 22, and 29. Animals were transferred to clean cages, food and water were uninterrupted. A blood sample was collected via tail nick and blood glucose was assessed using a hand-held Glucometer. Body weights were determined twice weekly for the duration of the study period.

[6] = tested on: C57BL/6J mice; conditions: mouse, in vivo; cited from earlier work
[7] = tested on: male Sprague Dawley rats fed with High fructose diet or High fat diet (HFD); conditions: rat, in vivo; cited from earlier work
[8] = tested on: pancreatic beta cells; conditions: cited from earlier work
[9] = tested on: C57BL/6J obese mice; conditions: cited from earlier work
[10] = tested on: C57BL/6J obese mice; conditions: cited from earlier work; remark: listed apart in the source
[11] = tested on: obese patients with T2DM; conditions: translational preclinical models and obese patients with T2DM; cited from earlier work
[12] = clinical study; cited from earlier work

CCCCC(=O)N(Cc1ccc(-c2ccccc2-c2nnn[nH]2)cc1)[C@H](C(=O)O)C(C)C [Valsartan]
systolic blood pressure ([1]; 1 mg/Kg/day, C57BL/6J obese mice): no effect | glucose tolerance ([1]; overnight fast, IP 2 g/Kg glucose): improves | impaired glucose tolerance ([1]; sub-hypertensive dose 1 mg/Kg/day, C57BL/6J obese mice): improves | onset of Type II diabetes [2]: delay the onset | beta cells function and insulin sensitivity [3]: improved

CN(C)C(=N)N=C(N)N [Metformin]
glucose tolerance (OGTT) ([4]; 2 g/Kg glucose after 20 hour fast, 0.25% and 0.5% Metformin = 150 and 300 mg/Kg/day): improves | HFD-induced insulin resistance ([4]; C57BL/6J DIO model): ameliorates | elevated non-fasting BG levels [5]: actually enhanced; also recorded: did not suppress

COc1ccc2c(c1)c(CC(=O)O)c(C)n2C(=O)c1ccc(Cl)cc1 [Indomethacin]
HFD-induced obesity and insulin resistance [6]: prevented

CS(=O)(=O)Nc1ccc([N+](=O)[O-])cc1Oc1ccccc1 [Mesulid]
insulin sensitivity [7]: restore | low-grade inflammation [7]: reverse | oxidative stress [7]: reduce

CS(=O)(=O)Nc1ccc([N+](=O)[O-])cc1OC1CCCCC1 [NS-398]
beta cell dysfunction [8]: reverses

NS(=O)(=O)c1ccc(-n2nc(C(F)(F)F)cc2-c2ccc(Cl)cc2)cc1 [SC58236]
HbA1c levels ([9]; C57BL/6J obese mice): reduces | reduction of HbA1c levels ([9]; selective Cox-2 inhibition): about 0.4% | glucose tolerance (IPGTT) ([10]; 6 hour fast, glucose 2 g/Kg): improves | plasma insulin levels ([10]; after glucose injection): elevates

O=C(Oc1ccccc1C(=O)O)c1ccccc1O [Salsalate]
systemic insulin sensitivity [11]: restore | reduction of glycosylated hemoglobin A1c, average [12]: 0.37%
